The record followed here is patent publication US11970576B2, “Beta-peptido sugar-copolymer” (NANYANG TECHNOLOGICAL UNIVERSITY, priority 2017, dated 2024).

≈ marks a conversion by molar mass, not a printed value. Where a SMILES comes first, the peptide text is derived from it. Where only a bound is given, the exact number is not on record here.

In one series the test system is MRSA USA300. Briefly: In vivo murine excision wound model. More on the design: species or system Staphylococcus aureus. The source says: Staphylococcus aureus is the most common cause for skin and soft tissue infections (SSTIs). Among those, up to three quarter are caused by community-associated MRSA (CA-MRSA). MRSA USA300 is a significant CA-MRSA pathogen in the US. According to Centers for Disease Control and Prevention of US, 212 out of 218 MRSA isolates were type USA300. To further test the in vivo efficacy of PDGu(10)-b-PBLK(10) against the clinically significant pathogen MRSA USA300, a mice wound excision model was adopted using 8 weeks female C57BL6 mice. […] This could be attributed to the excellent antibacterial efficacy of the β-peptido sugar-copolymer in vivo.
The in vivo efficacy of PDGu(10)-b-PBLK(10) was further tested against MRSA USA 300 with a murine excision wound model using two infection durations with treatments applied either 4 hour or 24 hour post infection. For treatment applied 4 hour post infection, the β-peptido sugar-copolymer achieves a log reduction of 4.1 (FIG. 8a), which is slightly better than vancomycin, which has a log reduction of 3.7. […] In contrast, vancomycin treatment only achieves 2.0 log reduction of the bacteria burden at the wound site (p≤0.01). The excellent in vivo antibacterial efficacy of PDGu(10)-b-PBLK(10) may be correlated to its outstanding in vitro killing kinetics and anti-biofilm bacteria property.
Female C57BL6 mice (Invivos, Singapore) aged 8 weeks were used for excision wound model to evaluate in vivo antimicrobial efficacy of the β-peptido sugar-copolymer. All mice were housed on a 12 hour light-dark cycle at room temperature for one week prior to the experiment. Mice (n=7 per group) were anesthetized using isoflurane and hair from the back was removed with a shaver and sterile scalpel blade. The shaved area was further sterilized using 70% ethanol and a 5 mm diameter excision wound was created using a biopsy punch. In t=4 hour post infection model, 2.5 μL MRSA USA300 in PBS suspension (5×10^5 CFU/mL) was added to wound site and covered by Tegaderm (3M™) to protect from contamination. […]

Series [1] deals with methicillin-resistant S. aureus (BAA-40). In kind it is cell-based. As for the experimental part:
(§1) Antimicrobial activity of block-like copolymers PDGu(x)-b-PBLK(y) against a panel of bacteria including both Gram-positive (S. aureus and B. subtilis) and Gram-negative (E. coli) in terms of minimal inhibition concentration (MIC) were tested. […] The activity was decreased with the increase of sugar ratio. This is reasonable when considering the killing domains became less.

The test system of the next series is E. coli (ATCC 8739). The series is classed as cell-based. The procedure: as §1
The next series relates to S. aureus (ATCC 29213). The series is classed as cell-based. As for the experimental part: as §1
Another series has as its system human red blood cells. The series is described as follows: Erythrocyte compatibility assay (hemolysis). As for the experimental part: Toxicity towards mammalian cells was another vital factor for bio-applications. […] Erythrocyte compatibility assay calculating the lysis of human red blood cells (HC10, concentration of polymers causing 10% human red blood cells lysed) was performed to characterize the in vitro biocompatibility.

`CN[C@H](CC(C)C)C(=O)N[C@H]1C(=O)N[C@@H](CC(N)=O)C(=O)N[C@H]2C(=O)N[C@H]3C(=O)N[C@H](C(=O)N[C@H](C(=O)O)c4cc(O)cc(O)c4-c4cc3ccc4O)[C@H](O)c3ccc(c(Cl)c3)Oc3cc2cc(c3O[C@@H]2O[C@H](CO)[C@@H](O)[C@H](O)[C@H]2O[C@H]2C[C@](C)(N)[C@H](O)[C@H](C)O2)Oc2ccc(cc2Cl)[C@H]1O` [vancomycin]: the “in vivo activity compared with the β-peptido sugar-copolymer” value in the series on MRSA USA300 (mice wound excision model, MRSA USA300) is “does not show superior activity”. Further, the “log reduction of MRSA USA300” value in the series with MRSA USA300 (treatment applied 4 hour post infection, single dose 2.5 mg/kg (FIG. 8a)) is given as 3.7 log. For the same compound, in the series on MRSA USA300 (treatment initiated 24 hour post infection, three times with 4-hour interval, 2.5 mg/kg (FIG. 8b)), the “log reduction of total bacteria count” value is listed as 2.0 log.
For the compound `CC[C@H](C)[C@H](NC(=O)CN)C(=O)NCC(=O)N[C@@H](CCCCN)C(=O)N[C@@H](Cc1ccccc1)C(=O)N[C@@H](CC(C)C)C(=O)N[C@@H](Cc1c[nH]cn1)C(=O)N[C@@H](CO)C(=O)N[C@@H](C)C(=O)N[C@@H](CCCCN)C(=O)N[C@@H](CCCCN)C(=O)N[C@@H](Cc1ccccc1)C(=O)NCC(=O)N[C@@H](CCCCN)C(=O)N[C@@H](C)C(=O)N[C@@H](Cc1ccccc1)C(=O)N[C@H](C(=O)NCC(=O)N[C@@H](CCC(=O)O)C(=O)N[C@H](C(=O)N[C@@H](CCSC)C(=O)N[C@@H](CC(N)=O)C(=O)N[C@@H](CO)C(=O)O)[C@@H](C)CC)C(C)C` [Magainin 2] (H-GIGKFLHSAKKFGKAFVGEIMNS-OH), in series [1], the “MIC MRSA” value was >512 µg/mL. In addition, in the series on E. coli (ATCC 8739), the “MIC E. coli” value was 64 µg/mL (≈ 25.9 µM). The “MIC SA 29213” value with S. aureus (ATCC 29213) was >512 µg/mL. The “HC10 RBC (concentration causing 10% human red blood cells lysed)” value with human red blood cells is >500 µg/mL.
As for Polymyxin B, the “MIC MRSA” value in series [1] was determined as 64 µg/mL. Besides, the “MIC E. coli” value in the series with E. coli (ATCC 8739) amounted to 2 µg/mL. For the same compound, the “MIC SA 29213” value against S. aureus (ATCC 29213) is 32 µg/mL. Also, in the series on human red blood cells, the “HC10 RBC (concentration causing 10% human red blood cells lysed)” value is >2500 µg/mL.
Consider `CC[C@H](C)[C@H](NC(=O)CN)C(=O)NCC(=O)N[C@@H](C)C(=O)N[C@H](C(=O)N[C@@H](CC(C)C)C(=O)N[C@@H](CCCCN)C(=O)N[C@H](C(=O)N[C@@H](CC(C)C)C(=O)N[C@H](C(=O)N[C@H](C(=O)NCC(=O)N[C@@H](CC(C)C)C(=O)N1CCC[C@H]1C(=O)N[C@@H](C)C(=O)N[C@@H](CC(C)C)C(=O)N[C@H](C(=O)N[C@@H](CO)C(=O)N[C@@H](Cc1c[nH]c2ccccc12)C(=O)N[C@H](C(=O)N[C@@H](CCCCN)C(=O)N[C@@H](CCCNC(=N)N)C(=O)N[C@@H](CCCCN)C(=O)N[C@@H](CCCNC(=N)N)C(=O)N[C@@H](CCC(N)=O)C(=O)N[C@@H](CCC(N)=O)C(N)=O)[C@@H](C)CC)[C@@H](C)CC)[C@@H](C)O)[C@@H](C)O)C(C)C)C(C)C` [Melittin], for which the “HC10 RBC (concentration causing 10% human red blood cells lysed)” value in the series with human red blood cells was found to be 8 µg/mL.
Regarding `CC[C@H](C)[C@H](NC(=O)[C@H](CCCCN)NC(=O)[C@H](CCC(=O)O)NC(=O)[C@H](CCCCN)NC(=O)[C@H](CO)NC(=O)[C@H](CCCCN)NC(=O)[C@H](CCCNC(=N)N)NC(=O)[C@H](Cc1ccccc1)NC(=O)[C@H](Cc1ccccc1)NC(=O)[C@H](CC(=O)O)NC(=O)CNC(=O)[C@H](CC(C)C)NC(=O)[C@@H](N)CC(C)C)C(=O)NCC(=O)N[C@@H](CCCCN)C(=O)N[C@@H](CCC(=O)O)C(=O)N[C@@H](Cc1ccccc1)C(=O)N[C@@H](CCCCN)C(=O)N[C@@H](CCCNC(=N)N)C(=O)N[C@H](C(=O)N[C@H](C(=O)N[C@@H](CCC(N)=O)C(=O)N[C@@H](CCCNC(=N)N)C(=O)N[C@H](C(=O)N[C@@H](CCCCN)C(=O)N[C@@H](CC(=O)O)C(=O)N[C@@H](Cc1ccccc1)C(=O)N[C@@H](CC(C)C)C(=O)N[C@@H](CCCNC(=N)N)C(=O)N[C@@H](CC(N)=O)C(=O)N[C@@H](CC(C)C)C(=O)N[C@H](C(=O)N1CCC[C@H]1C(=O)N[C@@H](CCCNC(=N)N)C(=O)N[C@H](C(=O)N[C@@H](CCC(=O)O)C(=O)N[C@@H](CO)C(=O)O)[C@@H](C)O)C(C)C)[C@@H](C)CC)C(C)C)[C@@H](C)CC` [LL37], the “MIC MRSA” value in series [1] is >512 µg/mL.
